Test results as given in PubChem BioAssay (NCI).
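Results reflect a 48-hour exposure of cells in 96-well plates to compound at five concentrations. The concentration for 50% growth inhibition is given as GI50. Definition used: TGI = concentration required for complete inhibition of growth.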

Experiments:
Assay in all cases: inhibition of tumour cell growth, NCI panel, 48 h; in the data active = GI50 below about 0.43 µM; inactive = the rest
[1] = test system: NCI-H23 lung
[2] = test system: SK-MEL-5 melanoma
[3] = test system: MDA-MB-435
[4] = test system: SNB-19 CNS
[5] = test system: NCI-H522 lung
[6] = test system: SF-295 CNS
[7] = test system: UACC-257 melanoma
[8] = test system: NCI-H460 lung
[9] = test system: HT29 colon
[10] = test system: HL-60(TB) leukemia
[11] = test system: LOX IMVI melanoma
[12] = test system: SNB-75 CNS
[13] = test system: A549 NSCLC
[14] = test system: SR leukemia
[15] = test system: OVCAR-5 ovarian
[16] = test system: COLO 205 colon
[17] = test system: ACHN renal
[18] = test system: HOP-92 NSCLC
[19] = test system: CCRF-CEM leukemia
[20] = test system: RXF 393 renal
[21] = test system: KM12 colon
[22] = test system: TK-10 renal
[23] = test system: A498 renal
[24] = test system: RPMI-8226 leukemia
[25] = test system: HCT-15 colon
[26] = test system: T-47D breast
[27] = test system: SK-MEL-28 melanoma
[28] = test system: MALME-3M melanoma
[29] = test system: SK-MEL-2 melanoma
[30] = test system: EKVX NSCLC
[31] = test system: M14 melanoma
[32] = test system: UO-31 renal
[33] = test system: PC-3 prostate
[34] = test system: SF-268 CNS
[35] = test system: HCT-116 colon
[36] = test system: K-562 leukemia
[37] = test system: BT-549 breast
[38] = test system: OVCAR-3 ovarian
[39] = test system: OVCAR-8 ovarian
[40] = test system: 786-0 renal
[41] = test system: UACC-62 melanoma
[42] = test system: SK-OV-3 ovarian
[43] = test system: MDA-MB-231 breast
[44] = test system: SN12C renal
[45] = test system: MOLT-4 leukemia
[46] = test system: HCC-2998 colon
[47] = test system: SF-539 CNS
[48] = test system: SW-620 colon
[49] = test system: U251 CNS
[50] = test system: OVCAR-4 ovarian
[51] = test system: IGROV1 ovarian
[52] = test system: NCI/ADR-RES ovarian
[53] = test system: CAKI-1 renal
[54] = test system: NCI-H226 lung
[55] = test system: MCF7 breast
[56] = test system: HS 578T breast
[57] = test system: HOP-62 NSCLC
[58] = test system: DU-145 prostate

O=C(/C=C\c1ccc2ccccc2n1)c1cc(Cl)ccc1O
17.2 µM: TGI [31]
> 100 µM: TGI [13] | TGI [23] | TGI [42] | TGI [55]
27.2 µM: TGI [34]
21.4 µM: TGI [17]
85.3 µM: TGI [22]
17 µM: TGI [37]
6.36 µM: TGI [20]
44.2 µM: TGI [6]
49.6 µM: TGI [27]
24.5 µM: TGI [4] | TGI [21]
21.7 µM: TGI [3]
8.04 µM: TGI [52]
25.8 µM: TGI [28]
19 µM: TGI [26]
20.7 µM: TGI [57]
14.7 µM: TGI [39]
28.3 µM: TGI [46]
17.1 µM: TGI [38]
16 µM: TGI [5]
inactive: GI50 [1] 5.9 µM | GI50 [2] 13.4 µM | GI50 [3] 3.66 µM | GI50 [4] 10.1 µM | GI50 [5] 2880 nM | GI50 [6] 10.3 µM | GI50 [7] 24.3 µM | GI50 [8] 16 µM | GI50 [9] 4.2 µM | GI50 [10] 3.32 µM | GI50 [11] 2840 nM | GI50 [12] 6.58 µM | GI50 [13] 57.9 µM | GI50 [14] 2480 nM | GI50 [15] 14.3 µM | GI50 [16] 5.74 µM | GI50 [17] 8.32 µM | GI50 [18] 1820 nM | GI50 [19] 2160 nM | GI50 [20] 2300 nM | GI50 [21] 8.71 µM | GI50 [22] 7.88 µM | GI50 [23] 28.9 µM | GI50 [24] 2150 nM | GI50 [25] 2430 nM | GI50 [26] 3.68 µM | GI50 [27] 18.7 µM | GI50 [28] 8.64 µM | GI50 [29] 11.7 µM | GI50 [30] 13.7 µM | GI50 [31] 4.92 µM | GI50 [32] 4.33 µM | GI50 [33] 6.47 µM | GI50 [34] 12.2 µM | GI50 [35] 3.38 µM | GI50 [36] 3.46 µM | GI50 [37] 4.82 µM | GI50 [38] 5.31 µM | GI50 [39] 3.16 µM | GI50 [40] 4.28 µM | GI50 [41] 7.51 µM | GI50 [42] 61.4 µM | GI50 [43] 5.18 µM | GI50 [44] 9.58 µM | GI50 [45] 3.12 µM | GI50 [46] 14.6 µM | GI50 [47] 7.15 µM | GI50 [48] 1840 nM | GI50 [49] 2310 nM | GI50 [50] 5.25 µM | GI50 [51] 5.21 µM | GI50 [52] 2600 nM | GI50 [53] 5.49 µM | GI50 [54] 9.41 µM | GI50 [55] 6.48 µM | GI50 [56] 16.2 µM | GI50 [57] 6.54 µM | GI50 [58] 5.81 µM
18.4 µM: TGI [16]
22.6 µM: TGI [51]
31.5 µM: TGI [9]
87.5 µM: TGI [30]
38.2 µM: TGI [33] | TGI [54]
24.3 µM: TGI [43]
24.4 µM: TGI [44]
24.6 µM: TGI [50]
11.3 µM: TGI [10] | TGI [35]
17.8 µM: TGI [32]
62.6 µM: TGI [56]
5.2 µM: TGI [49]
9.35 µM: TGI [18]
14.6 µM: TGI [40]
30.5 µM: TGI [15]
8.86 µM: TGI [25]
8.29 µM: TGI [19]
24.1 µM: TGI [45]
19.7 µM: TGI [1]
45.2 µM: TGI [29]
37.5 µM: TGI [2]
8.11 µM: TGI [14]
42.6 µM: TGI [8]
3.84 µM: TGI [48]
19.4 µM: TGI [58]
23.2 µM: TGI [36] | TGI [47]
5.83 µM: TGI [24]
21 µM: TGI [12] | TGI [41]
21.5 µM: TGI [53]
63.2 µM: TGI [7]
11.7 µM: TGI [11]

CN(C)CCNC(=O)c1nc([N+](=O)[O-])cn1C
> 100 µM: TGI [1] | TGI [2] | TGI [3] | TGI [4] | TGI [5] | TGI [6] | TGI [7] | TGI [8] | TGI [9] | TGI [10] | TGI [11] | TGI [12] | TGI [13] | TGI [14] | TGI [15] | TGI [16] | TGI [17] | TGI [18] | TGI [19] | TGI [21] | TGI [22] | TGI [23] | TGI [24] | TGI [25] | TGI [26] | TGI [27] | TGI [28] | TGI [29] | TGI [31] | TGI [32] | TGI [33] | TGI [34] | TGI [35] | TGI [36] | TGI [37] | TGI [38] | TGI [39] | TGI [40] | TGI [41] | TGI [42] | TGI [43] | TGI [44] | TGI [45] | TGI [46] | TGI [47] | TGI [48] | TGI [49] | TGI [50] | TGI [51] | TGI [52] | TGI [53] | TGI [55] | TGI [56] | TGI [57] | TGI [58]
